The values that follow come from US9718809B2, “Bisarylsulfonamides useful in the treatment of inflammation and cancer” (Kancera AB, priority 2011, dated 2017).

For one test, the system named is SW620 cells. The test is described as follows: Inhibition of cancer cell proliferation, total cellular protein (Sulphorhodamine B), SW620. The settings on record: Homo sapiens, SW-620, 72 h, read-out: IC50 based on quantitation of total cellular protein after treatment. Here is the method:
To assess the antiproliferative response elicited by the compounds of the present invention in different tumour cell lines, total cellular protein in samples was quantified using the Sulphorhodamine B kit, TOX6, (Sigma-Aldrich). The protocol is based on quantitation of total cellular protein after indicated treatments and incubation times using the Sulphorhodamine B kit, TOX6, (Sigma-Aldrich).
Briefly, after protein precipitation using TCA according to the manufacturer's instructions, the sulphorhodamine dye (80 μL/well) was added to the air-dried wells. After 20 min incubation at room temperature, the dye was discarded and the samples were gently rinsed with 1% HOAc until clear. After air drying, bound dye was solubilised in 200 μL 10 mM Tris base, and the absorbance of dye was measured at 565 nm. To quantify growth, samples were collected also at t=0 h, and the resulting absorbance was set to 100%. […]
After protein precipitation using TCA according to the manufacturer's instructions, the sulforhodamine B dye (50 μL/well) was added to the air-dried wells. […] After air drying, bound dye was solubilised in 100 μL 10 mM Tris base, and the absorbance of dye was measured at 530 nm and a background absorbance (subtract from the measurement at 530 nm) at 690 nm. To quantify growth, samples were collected also at t=0 h.

The test system of another test is F-2,6-P2 in PANC-1 cells. The test is described as follows: Quantification of F-2,6-P2 (Van Schaftingen coupled enzyme assay) in PANC-1 cells. The format is cell-based, human. Conditions: Homo sapiens; PANC-1 cells; read-out: IC50 based on quantification of F-2,6-P2. The essentials:
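PANC-1 cells (~25 000/well) starved 18 h in glucose-free 0.25% FBS medium, treated 1 h with compound (50 and 10 μM, or dose response from 50 μM; 0.5% DMSO), then glucose added for 2 h at 37 °C. Cells lysed in NaOH; F-2,6-P2 quantified by PPi-PFK coupled NADH-consumption spectrophotometry.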

Turning to `COC(=O)c1ccc(NS(=O)(=O)c2cc(Cl)c(Cl)s2)cc1OC(C)=O` [Example 132, Methyl 2-(acetyloxy)-4-{[(4,5-dichlorothiophen-2-yl)sulfonyl]amino}benzoate], the IC50 in the test with SW620 cells turned out to be 11.8 µM; in the test on F-2,6-P2 in PANC-1 cells it was 1.5 µM.

The term IC50 denotes the concentration that gives 50% inhibition.
